Here are results for five molecules from PMC8126080, “Three Small Molecule Entities (MPK18, MPK334 and YAK308) with Activity against Haemonchus contortus In Vitro” (Molecules, 2021).

Structures are written as SMILES. “Also recorded” adds a separate entry of the source. Read-outs that look alike come from different tables or passages of the source. Where only a bound is given, the exact number is not on record here.

What all share (type): cell-based
Series [1] concerns exsheathed third-stage larvae (xL3) of Haemonchus contortus. Put plainly: Primary phenotypic screen on xL3s at 20 µM (video recording, 72 h). The following applies: for proportion of xL3s exhibiting the phenotype in the primary screen: 72 h, visual inspection of video recordings; for phenotype induced in xL3s in the primary screen: 72 h of exposure. The procedure:
A library containing 245 compounds (Supplementary Table S1) was curated by the authors (T.K. and B.L.) at the Institute of Pharmaceutical and Medicinal Chemistry, Heinrich-Heine-University Düsseldorf, Germany. Individual compounds were dissolved in 100% high-performance liquid chromatography-grade dimethyl sulfoxide (DMSO; Merck, USA) to achieve stock concentrations of 20 mM. For screening, individual compounds were diluted further to the final concentration of 20 µM in Luria Bertani broth (LB) supplemented with 100 U/mL of penicillin, 100 μg/mL of streptomycin and 0.25 μg/mL of amphotericin B (designated LB*), and tested for activity in vitro against H. contortus.
(§1) Haemonchus contortus (Haecon-5 strain) was maintained in experimental sheep, in accordance with institutional animal ethics approval (permit no. 1714374; The University of Melbourne). Helminth-free Merino sheep (male; eight months of age) were inoculated orally with 7000 third-stage larvae (L3s) of H. contortus. Faecal samples containing H. contortus eggs were collected every day from 21 days following inoculation. These samples were incubated at 27 °C for one week to produce L3s, which were harvested and sieved through two layers of nylon mesh ([…] pore size; Rowe Scientific, Australia) to remove debris and dead larvae, and then stored at 11 °C for up to 6 months until use. To produce exsheathed third-stage larvae (xL3s) for in vitro assays, L3s were incubated in 0.15% (v/v) sodium hypochlorite for 20 min at 37 °C followed by five washes in 0.9% sterile saline by centrifugation at 600× g (5 min) at room temperature (22–24 °C).
Compounds were screened at 20 μM on H. contortus xL3s using an established assay. In brief, diluted test-compounds, negative controls (LB* + 0.5% DMSO) and two positive controls [20 μM of monepantel (Zolvix, Novartis Animal Health, Switzerland) and 20 μM of moxidectin (Cydectin, Virbac, France)] were added to wells of the 96-well microtiter plates (Corning, USA), and xL3s were dispensed at ~300/well to a final volume of 100 µL. Following a 72 h-incubation at 38 °C and 10% (v/v) CO2 at >90% humidity, a video recording (5 s) was taken of each well of the 96-well microtitre plate containing xL3s using a gray–scale camera (Rolera Bolt Scientific CMOS, Teledyne QImaging, Tucson, AZ, USA) and a motorised X–Y axis stage (BioPoint 2, Ludl Electronics Products, Hawthorne, CA, USA) attached to a stereomicroscope (SZ61, Olympus, Shinjuku, Japan). Primary screening was performed in duplicate. A compound was recorded as having activity if it altered worm morphology (phenotype) after 72 h of incubation.

For series [2] the test system is unchanged. Put plainly: Dose-response assay, inhibition of larval motility. The following applies: for xL3 Motility (72 h) Inhibition (%): concentration not given; for IC50: Haemonchus contortus, 72 h incubation, mean ± SEM, three independent experiments in triplicate. The protocol:
as §1
Three compounds (designated MPK18, MPK334 and YAK308) shown to have activity against H. contortus in the primary screen were evaluated for their potency by estimating their half maximal inhibitory concentrations (IC50), calculated in a dose-response assay. In brief, compounds were titrated (18-points, 2-fold serial dilution in 50 μL of LB*, 100 µM down to 0.76 nM), in 96-well microtitre plates and xL3s were dispensed in 50 µL at a density of ~300 per well. All plates were incubated at 38 °C and 10% (v/v) CO2 with >90% humidity. After 72 h of incubation, a video recording (5 s) was taken of each well in the same camera settings as the primary screen (see Section 3.3), and larval motility measured. The motility index (Mi) was calculated from video data using the unique algorithm written in a custom macro, and analysed through the program ImageJ (v.2.0.0, Fiji). Mi data were normalised to a percentage compared with negative control (LB* + 0.5% DMSO). Monepantel and moxidectin were diluted in the same manner, and used as positive control compounds. Assays were performed in triplicate, three times, on separate days. To establish IC50 values, compound concentrations were log10-transformed, fitted using a variable slope four-parameter equation, constraining the maximum value to 100% using a least squares (ordinary) fit model employing GraphPad Prism (v. 9.0.2) software.

Series [3] in a line: Toxicity on HepG2 cells (crystal violet staining). The following applies: HepG2 human hepatoma cells. The protocol:
HepG2 human hepatoma cells were seeded into wells of a 96-well microtitre plate in 80 µL of Dulbecco’s modified eagle medium (DMEM), supplemented with 10% foetal bovine serum, 100 U/mL of penicillin, 100 µg/mL of streptomycin and 0.25 µg/mL of amphotericin B (DMEM*) at a density of 1 × 10^5 cells per well. Cells were allowed to adhere for 16 h at 37 °C and 5% (v/v) CO2 at >90% humidity, and incubated with individual, serially-diluted compounds (7-points, 2-fold dilution in DMEM*, from 100 µM to 1.56 µM) in a final volume of 100 µL. Doxorubicin (10 µM) and DMEM* + 0.25% DMSO (vehicle), serving as positive and negative controls, respectively, were added to the individual 96-well plates. Monepantel and moxidectin were also serially diluted—prepared in the same manner as active compounds—and used as ‘negative’ reference controls. After 48 h of incubation, cellular viability was determined by the crystal violet staining assay. The absorbance at 595 nm of treated cells was compared with that of the controls (exposed only to the vehicle, with 100% viability). Compounds and controls were tested in triplicate. To determine the half cytotoxic concentration (CC50) values, compound concentrations were log10-transformed, fitted using a variable slope four-parameter equation with a least squares (ordinary) fit model employing GraphPad Prism (v. 9.0.2) software.

In series [4] the test system is exsheathed third-stage larvae (xL3) / fourth-stage larvae (L4) of Haemonchus contortus. Put plainly: Dose-response assay, inhibition of larval development (xL3 to L4) and phenotype over 7 days. The following applies: seven days; for phenotype of larvae after exposure for 7 days / proportion of larvae exhibiting the phenotype at 100 µM: 100 µM; for phenotype of larvae after exposure for 7 days: xL3s/L4s; for IC50: Haemonchus contortus, 168 h. The protocol: as §1
Following the measurement of larval motility at 72 h, plates containing xL3s were incubated for four more days at 38 °C [10% (v/v) CO2 and >90% relative humidity] to test the active compounds (MPK18, MPK334 and YAK308) for their effect on the larval development over 7 days. Subsequently, worms were fixed in 1% iodine, and the rate of larval development was assessed microscopically appraising the presence (L4) or absence (xL3) of mouth and pharynx, and direct comparison with negative (untreated) controls (LB* + 0.5% DMSO). Thirty worms from each well were examined at 50-times magnification, and the number of L4s was expressed as a percentage of the total number. Assays were performed in triplicate, three times, on separate days. To establish IC50 values, compound concentrations were log10-transformed, fitted using a variable slope four-parameter equation with constraining the top value to 100% using a least squares (ordinary) fit model using GraphPad Prism (v. 9.0.2) software.

The mark [5] stands for this setting: mean ± SEM, read-out: L4 Development (7 days) IC50 ± SEM.

Broadly, the CC50 is the concentration giving 50% cytotoxicity. A higher CC50 goes with lower toxicity to the cells. For the molecule `Cc1ccc(/C=C/C(=O)NOCc2ccccc2)cc1` [MPK18], in series [1], the “proportion of xL3s exhibiting the phenotype in the primary screen” value (shortened to “proportion … in the primary screen”) is recorded as ~ 50% and the “phenotype induced in xL3s in the primary screen” value (from here on “phenotype induced in xL3s”) is “coiled”. In addition, in series [2], the “xL3 Motility (72 h) Inhibition (%)” value turned out to be 30.0% and the IC50 came out at 45.2 ± 4.6 µM. The CC50 at 48 h in series [3] is greater than 100 µM. Moreover, in series [4], the “phenotype of larvae after exposure for 7 days” value (“phenotype of larvae” for short) is listed as “not observed; also recorded: Wild type”. For the same molecule, in series [4] (read-out: concentration at which active on larval development (IC50 not determined)), the IC50 is greater than 25 µM.

For the molecule `O=C(/C=C/c1ccccc1)c1ccc(Br)cc1O` [MPK334], in series [1], the “proportion … in the primary screen” value is reported as ~ 50% and the “phenotype induced in xL3s” value is on record as “coiled”. Moreover, in series [2], the “xL3 Motility (72 h) Inhibition (%)” value amounted to 74.2% and the IC50 was 17.1 ± 4.2 µM. The molecule also showed a CC50 at 48 h in series [3] greater than 100 µM. For the same molecule, in series [4], the “proportion of larvae exhibiting the phenotype at 100 µM” value was determined as 100% and the “phenotype of larvae” value is “curved”. In series [4] (setting [5]), the IC50 was determined as 12.3 ± 2.3 µM.

For `C[C@](C#N)(COc1cc(C#N)ccc1C(F)(F)F)NC(=O)c1ccc(SC(F)(F)F)cc1` [Monepantel, monepantel, reference compound], the “phenotype induced in xL3s” value in series [1] is “Coiled”. For the same molecule, in series [2], the “xL3 Motility (72 h) Inhibition (%)” value amounted to 90.3% and the IC50 is 0.6 ± 0.1 µM. In addition, the CC50 at 48 h in series [3] was greater than 100 µM. For the same molecule, the IC50 in series [4] (setting [5]) turned out to be 0.4 ± 0.05 µM.

For the molecule `CO/N=C1\C[C@]2(C[C@@H]3C[C@@H](C/C=C(\C)C[C@@H](C)/C=C/C=C4\CO[C@@H]5[C@H](O)C(C)=C[C@@H](C(=O)O3)[C@]45O)O2)O[C@H](/C(C)=C/C(C)C)[C@H]1C` [Moxidectin, moxidectin, reference compound], the “phenotype induced in xL3s” value in series [1] is reported as “Relaxed”. Besides, the “xL3 Motility (72 h) Inhibition (%)” value in series [2] was 85.1%. Moreover, the IC50 in series [2] came to 0.8 ± 0.2 µM; in series [4] (setting [5]), 12.4 ± 0.1 µM. Further, the CC50 at 48 h in series [3] is greater than 100 µM.

In the case of `COc1cc(OC)cc(C(=O)Nc2nc(-c3ccccc3)cs2)c1` [YAK308], in series [1], the “proportion … in the primary screen” value was ~ 90% and the “phenotype induced in xL3s” value was “curved”. Moreover, in series [1] (listed as YAK 308), the “phenotype induced in xL3s” value is “Curved”. Also, in series [2], the “xL3 Motility (72 h) Inhibition (%)” value turned out to be 34.6% and the IC50 is 52.7 ± 6.7 µM. For the same molecule, in series [3], the CC50 at 48 h is greater than 100 µM. Further, in series [4], the “proportion of larvae exhibiting the phenotype at 100 µM” value is 22%; the “phenotype of larvae” value is “evisceration and evi”. Moreover, in series [4] (setting [5]), the IC50 was determined as 6.5 ± 1.6 µM.
